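Test compounds were applied to cells in 96-well plates for 48 hours at 5 doses. At the GI50, growth is halved. The concentration for full growth arrest is given as TGI.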

Among the test systems are MALME-3M melanoma; HL-60(TB) leukemia; HOP-92 NSCLC; SK-OV-3 ovarian; CCRF-CEM leukemia; COLO 205 colon; A549 NSCLC; MOLT-4 leukemia; PC-3 prostate; UO-31 renal.
What all share (assay): NCI tumour cell line growth inhibition, 48 h

With `O=c1/c(=C\c2ccc(Br)cc2)sc2n1C(c1ccc(Br)cc1)C1=C(N=2)c2ccc3ccccc3c2OCC1` (stereo not given), the GI50 in the assay with MALME-3M melanoma, in the assay with HL-60(TB) leukemia, in the assay with HOP-92 NSCLC, in the assay on SK-OV-3 ovarian, in the assay with CCRF-CEM leukemia and in the assay on COLO 205 colon was more than 100 µM in each case. Moreover, the GI50 with A549 NSCLC, in the assay with MOLT-4 leukemia, in the assay on PC-3 prostate and in the assay with UO-31 renal was more than 100 µM in each case. In addition, the TGI in the assay with MALME-3M melanoma, with HL-60(TB) leukemia, in the assay with HOP-92 NSCLC, with SK-OV-3 ovarian, with CCRF-CEM leukemia and with COLO 205 colon was more than 100 µM each time. Further, the TGI with A549 NSCLC, in the assay on MOLT-4 leukemia, with PC-3 prostate and in the assay with UO-31 renal was more than 100 µM each time.
In the case of `CCCCOC(=O)c1c(C)[nH]c(/C=C2\N=C(c3ccc[nH]3)C=C2OC)c1C`, the GI50 is 1.16 µM in the assay with MALME-3M melanoma; 0.581 µM in the assay with HL-60(TB) leukemia; 0.163 µM with HOP-92 NSCLC; 1.45 µM with SK-OV-3 ovarian; 0.0583 µM with CCRF-CEM leukemia; 0.274 µM with COLO 205 colon. Besides, the GI50 in the assay with A549 NSCLC was 0.205 µM; in the assay with MOLT-4 leukemia, 0.138 µM; in the assay with PC-3 prostate, 0.136 µM; with UO-31 renal it was 0.137 µM. For the same compound, the TGI with MALME-3M melanoma is 2.82 µM; with HL-60(TB) leukemia, 4 µM; in the assay with HOP-92 NSCLC it was 0.637 µM; in the assay with SK-OV-3 ovarian, 14.4 µM; with CCRF-CEM leukemia, more than 20.4 µM; in the assay with COLO 205 colon, 1.67 µM. The TGI was 15.2 µM in the assay on A549 NSCLC, 9.85 µM with MOLT-4 leukemia, more than 24.9 µM with PC-3 prostate and 0.337 µM in the assay with UO-31 renal.
Turning to `Cn1c(=O)c(Oc2ccc(F)cc2F)cc2cnc(NCC(C)(C)O)nc21`, the GI50 with MALME-3M melanoma, with HL-60(TB) leukemia, in the assay with HOP-92 NSCLC, with SK-OV-3 ovarian, in the assay on CCRF-CEM leukemia and in the assay on COLO 205 colon was more than 25 µM throughout. Further, the GI50 with A549 NSCLC, with MOLT-4 leukemia, with PC-3 prostate and in the assay with UO-31 renal was more than 25 µM each time. For the same compound, the TGI in the assay with MALME-3M melanoma, with HL-60(TB) leukemia, in the assay on HOP-92 NSCLC, with SK-OV-3 ovarian, in the assay with CCRF-CEM leukemia and in the assay with COLO 205 colon was more than 25 µM in each case. For the same compound, the TGI in the assay on A549 NSCLC, in the assay on MOLT-4 leukemia, with PC-3 prostate and in the assay on UO-31 renal was more than 25 µM each time.
As for `CC[C@@H](C)/C=C(C)/C=C/C(=O)c1c(O)c(-c2ccc(O)cc2)cn(OC2CC(=O)CCC(C)OC(=O)CC2O)c1=O` (stereo not given in full), the GI50 is 0.305 µM in the assay with MALME-3M melanoma; 0.212 µM in the assay with HL-60(TB) leukemia; 0.509 µM in the assay on HOP-92 NSCLC; 0.463 µM in the assay with SK-OV-3 ovarian; 0.163 µM in the assay with CCRF-CEM leukemia; 5.97 µM in the assay on COLO 205 colon. The GI50 in the assay on A549 NSCLC is 1.74 µM; with MOLT-4 leukemia it was 0.225 µM; in the assay with PC-3 prostate, 5.62 µM; in the assay on UO-31 renal, 0.255 µM. In addition, the TGI with MALME-3M melanoma is 6.8 µM; in the assay on HL-60(TB) leukemia, 2.86 µM; in the assay on HOP-92 NSCLC, 18.6 µM; in the assay with SK-OV-3 ovarian it was 35.6 µM; in the assay on CCRF-CEM leukemia, 12.6 µM; with COLO 205 colon, 21.2 µM. Also, the TGI in the assay with A549 NSCLC is 15.6 µM; with MOLT-4 leukemia, 12.1 µM; in the assay on PC-3 prostate, more than 91.5 µM; in the assay with UO-31 renal, 1.92 µM.
`Cc1c(Cl)c(C)c(Cl)c(O)c1Cl`: the TGI in the assay with MALME-3M melanoma is 54.3 µM; with HL-60(TB) leukemia, 58.4 µM; in the assay with HOP-92 NSCLC it was 58 µM; with SK-OV-3 ovarian it was more than 100 µM; in the assay on CCRF-CEM leukemia, more than 100 µM; with COLO 205 colon, more than 100 µM. Besides, the TGI was determined as 71.9 µM with A549 NSCLC, 54.5 µM with MOLT-4 leukemia, 63.9 µM in the assay on PC-3 prostate and 42.6 µM in the assay with UO-31 renal.
On to `Nc1c(C(=O)Nc2cccc(C(F)(F)F)c2)sc2nc3c(cc12)CCCCCC3`, for which the GI50 in the assay on MALME-3M melanoma was 3.54 µM; with HL-60(TB) leukemia, 11.3 µM; in the assay with HOP-92 NSCLC, 1.7 µM; with SK-OV-3 ovarian, 2.26 µM; in the assay on CCRF-CEM leukemia, 5.73 µM; with COLO 205 colon it was 3.07 µM. Besides, the GI50 in the assay with A549 NSCLC was 1.77 µM; in the assay on MOLT-4 leukemia, 11.1 µM; with PC-3 prostate it was 4.31 µM; in the assay with UO-31 renal it was 2.18 µM. For the same compound, the TGI was 11.3 µM in the assay on MALME-3M melanoma; more than 100 µM in the assay with HL-60(TB) leukemia; 4.86 µM in the assay on HOP-92 NSCLC; 6.29 µM with SK-OV-3 ovarian; more than 100 µM with CCRF-CEM leukemia; 14 µM in the assay with COLO 205 colon. The TGI with A549 NSCLC stood at 5.08 µM; with MOLT-4 leukemia, 35.1 µM; in the assay on PC-3 prostate it was 32.7 µM; with UO-31 renal, 8.57 µM.
Consider `Cc1cc(C)c2c(c1)N(C)c1ncnc(-n3cnc4cc(C)ccc43)c1CC2C` (stereo not given), for which the GI50 in the assay on MALME-3M melanoma is 3.61 µM; in the assay with HL-60(TB) leukemia, 2.46 µM; in the assay with HOP-92 NSCLC, 4.1 µM; in the assay on SK-OV-3 ovarian it was 4.41 µM; in the assay with CCRF-CEM leukemia, 2.78 µM; with COLO 205 colon, 3.32 µM. Further, the GI50 was 4.03 µM in the assay with A549 NSCLC, 2.46 µM with MOLT-4 leukemia, 2.25 µM in the assay on PC-3 prostate and 2.5 µM in the assay with UO-31 renal. The TGI in the assay on MALME-3M melanoma is 17.3 µM; in the assay with HL-60(TB) leukemia it was 9.36 µM; in the assay on HOP-92 NSCLC it was 32.9 µM; in the assay on SK-OV-3 ovarian it was more than 100 µM; in the assay on CCRF-CEM leukemia, 11.4 µM; in the assay with COLO 205 colon, 10.5 µM. The TGI in the assay with A549 NSCLC was 56.9 µM; in the assay with MOLT-4 leukemia, 9.57 µM; in the assay with PC-3 prostate it was 14.8 µM; in the assay on UO-31 renal it was 16.2 µM.
